The IC50 is the concentration that inhibits the measured activity by half.

The test has as its system S. cerevisiae tim10-1 mutant growth, luminescence. Description: growth inhibitors of tim10-1 mutant yeast, dose response, luminescence, S. cerevisiae, uHTS hits (AID 493003).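 Note: yeast growth measured after about 22 hours at 25 °C.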
With `COc1ccccc1N1CCN(C(=O)c2cc3sccc3n2C)CC1`, the IC50 is 34.6 µM.

Consider `CCC1CCCCN1c1nc(-c2ccncc2)nc2ccccc12` (stereo not given), for which the IC50 was 34.3 µM.

Regarding `N=C(N)c1ccc(/C=C/c2ccc(C(=N)N)cc2O)cc1`, the 50% inhibitory concentration (IC50) is 10.6 µM.

In the case of `O=C(Nc1cccnc1)c1cn(-c2ccccc2)nc1-c1cccs1`, the IC50 is 13.2 µM.

Turning to `Clc1cccc(Cl)c1/C=C/c1ccn[nH]1`, the IC50 was 22.8 µM.

As to `c1ccc(-c2csc3ncnc(-n4cnc5ccccc54)c23)cc1`, the IC50 was 15.8 µM.

Regarding `c1ccc(Nc2cccc(Nc3ccccc3)n2)cc1`, the IC50 is 14.2 µM.

On to `Cc1cc(C)cc(OCC(=O)N2N=C(C(F)(F)F)CC2(O)C(C)(C)C)c1` (stereo not given), for which the IC50 is 77.8 µM.

Consider `CCOC(=O)C1CCN(C(=O)c2oc3ccc4c(c3c2C)C(O)CC2(CCCCC2)O4)CC1` (stereo not given), for which the IC50 is 26 µM.

For `O=S(=O)(NCCNc1ncc(C(F)(F)F)cc1Cl)C(F)(F)F`, the IC50 is 26.6 µM.

With `CC(C)c1nnc(NC(=O)CCS(=O)(=O)c2nc(-c3cccs3)cc(C(F)(F)F)n2)s1`, the IC50 is 11.9 µM.

For the compound `C=CCN(CC=C)S(=O)(=O)c1ccc(NC(=O)COc2ccccc2OC)cc1`, the half-inhibitory concentration (IC50) is 77.3 µM.

For the compound `N=c1c2c(-c3ccccc3)c(-c3ccccc3)n(Cc3ccccc3)c2ncn1CCO`, the half-inhibitory concentration (IC50) was 23.8 µM.

Turning to `CN1CCc2c(C#N)c(N3CCCCC3)nc(NCc3ccccc3)c2C1`, the IC50 was 16 µM.

Regarding `CSc1ccc2nnc(-c3cccc(F)c3)n2n1`, the IC50 was 29.6 µM.

Regarding `CN(C)CCCN(C(=O)c1ccc(S(=O)(=O)N2CCc3ccccc3C2)cc1)c1nc2c(F)cc(F)cc2s1`, the IC50 is 35.2 µM.

Take `Cc1cccc(C(=O)O/N=C(/c2ccccc2)c2ccncc2)c1`: the IC50 was 26.1 µM.

Turning to `Cc1ccc2nc(C)c(C(=O)N/N=C/c3cccc([N+](=O)[O-])c3)cc2c1`, the IC50 was 25.8 µM.

`CCC(Oc1ccccc1)C(=O)Nc1ncc([N+](=O)[O-])s1` (stereo not given): the IC50 is 18.3 µM.

On to `CNC(=O)c1ccsc1NC(=O)c1ccc(Cl)s1`, for which the IC50 was 64.7 µM.

Turning to `CCc1ccc(NC(=S)N(Cc2ccccc2)Cc2ccccn2)cc1`, the IC50 is 38 µM.

Turning to `CCOC(=O)c1sc2ncnc(NCc3ccco3)c2c1C`, the IC50 is 30.5 µM.

Consider `COc1cccc(Nc2ncccc2C(=O)Nc2ccccc2)c1`, for which the IC50 is 31.7 µM.

On to `N/C(=N\OC(=O)CCCOc1ccccc1)c1cccc([N+](=O)[O-])c1`, for which the concentration for half-maximal inhibition (IC50) is 53.4 µM.

Regarding `CCOc1ccc(NC(=O)c2cccc3c2C(=O)N(Cc2cccnc2)C3)cc1`, the IC50 is 22.8 µM.

Take `COC(=O)C(C(C)=O)C1=C/C(=N\S(=O)(=O)c2ccc(C)cc2)c2ccccc2C1=O` (stereo not given): the IC50 is 8.03 µM.

Take `O=[N+]([O-])c1cccc(NC(=S)NCCc2ccccc2)c1`: the IC50 is 32.8 µM.

Turning to `COc1ccc(Sc2cnn(-c3ccccc3)c(=O)c2Cl)cc1`, the IC50 is 35.6 µM.

With `S=C(NCCc1ccccc1)Nc1ccc(Nc2ccccc2)cc1`, the IC50 was 24.7 µM.

Turning to `CC1=C/C(=N\OS(=O)(=O)c2ccccc2)C=CC1=O`, the IC50 is 0.46 µM.

`CCN1C(=O)/C(=C/c2c(C)nn(C)c2C)SC1=S`: the IC50 is 24.4 µM.

Regarding `COc1ccc(C(=O)/C=C/c2ccccc2)c(O)c1`, the IC50 is 34.2 µM.

In the case of `O=C(Nc1ccc(N2CCN(C(=O)c3ccccc3F)CC2)cc1)c1cncc(Br)c1`, the concentration for half-maximal inhibition (IC50) was 41.3 µM.

Turning to `CCOC(=O)Cc1nnc2c(Nc3ccc(Cl)cc3)nc3nonc3n12`, the IC50 was 41.1 µM.

For `O=C(/C=C/c1cccs1)c1cc(Br)ccc1OC(=O)N1CCOCC1`, the IC50 is 36.4 µM.

In the case of `N/C(=N\OC(=O)CCCOc1ccc(Cl)cc1Cl)c1ccncc1`, the IC50 was 47.6 µM.

For the compound `Cc1ccnn2cc3c(=O)n(C)c(=O)n(C)c3c12`, the half-inhibitory concentration (IC50) is 63.1 µM.

Turning to `N#C/C(=N/Nc1ccc(OC(F)(F)F)cc1)C(N)=S`, the half-inhibitory concentration (IC50) was 5.24 µM.

With `N#C/C(=C/c1ccc(N2CCCCCC2)o1)c1cccc(F)c1`, the IC50 is 14.9 µM.

As for `Cc1ccccc1NC(=O)CSc1nc(N)c2c3c(sc2n1)CSC(C)(C)C3`, the IC50 is 36.6 µM.

The values above are taken from PubChem BioAssay AID493003 (Sanford-Burnham Center for Chemical Genomics, 2010).
